Measurements: US20040014681A1, “Method for treating dermatoses and tissue damage” (priority 2002, published 2004)

Assays:
[1] = Case examples: topical treatment of contact dermatitis to jewelry; format: in vivo, human; details: Case 5, adult, recurring red oozing dermatitis under gold and stone ring
Method: (§1) The following non-limiting case examples are presented to further illustrate the present invention: In the following examples, unless otherwise stated, the ointment contained about 0.15-0.22 mg of topiramate per ml of ointment (Thermaderm, an aqueous vanishing cream emollient) and sodium bicarbonate in an amount to provide a pH of about 7.8-8.
Case 5: Contact dermatitis to jewelry. […] This was usually treated with topical 0.1% mometasone furoate once daily for six or seven days with clearing of the lesion.
Case 6. Contact dermatitis to jewelry. An adult presented with a recurring red oozing dermatitis under a tight fitting silver/gold stone bracelet on their left wrist occurring especially during the winter and usually treated with topical corticosteroids over a five day period. Topiramate cream/ointment was applied daily with complete clearing in two days.

[2] = several rodent models of epilepsy and an animal model of kindled epilepsy; cited from earlier work
[3] = Case examples: topical treatment of poison ivy lesions; format: in vivo, human; details: Case 4, young person, poison ivy lesions on back, once a day application
Method: as §1
Case 3: Poison Ivy—A young child with known sensitivity to poison ivy presents with typical raised red vesicular lesions on their hands and left forearm. Topiramate cream/ointment was applied daily with the disappearance of lesions after 3 days.
Case 4: Poison Ivy—A young person having a history of extreme sensitivity to poison ivy presented with the entire right lower quadrant of their back covered with red, vesicular, and oozing lesions. These lesions cleared after four days of once a day application of Topiramate, at which time the application was stopped, leaving the skin dry with dead scales/scabs. The patient was seen four days later in this condition and began to apply Topirmate cream/lotion ever other day with complete resolution over the next six days.

[4] = adjunctive therapy or monotherapy; cited from earlier work

| Compound | time until clearing of the lesion [1] | block of seizures [2] | time until lesions cleared [3] | efficacy in clinical trials of human epilepsy [4] |
| --- | --- | --- | --- | --- |
| C[C@@H]1C[C@H]2[C@@H]3CCC4=CC(=O)C=C[C@]4(C)[C@@]3(Cl)[C@@H](O)C[C@]2(C)[C@@]1(OC(=O)c1ccco1)C(=O)CCl [mometasone furoate] | six or seven | – | – | – |
| CC1(C)O[C@@H]2[C@@H](CO[C@@]3(COS(N)(=O)=O)OC(C)(C)O[C@@H]23)O1 [topiramate, 2,3:4,5-bis-O-(1-methylethylidence)-β-D-fructopyranose sulfamate] | – | effectively block seizures | four | effective as adjunctive therapy or as monotherapy |
